Laboratory results as given in patent publication US4552882A, “7-(1-Pyrrolyl) derivatives of 1-ethyl-1,4-dihydro-4-oxoquinoline-3-carboxylic acids and 1-ethyl-1,4-dihydro-4-oxo-1,8-naphthyridine-3-carboxylic acids and their use as antimicrobial agents” (Provesan, SA, priority 1983, dated 1985).

Assay: in vivo
Conditions: mouse, ip
Description: To determine this toxicity, C.F.L.P. strain albino mice of both sexes, weighing between 19 and 25 grams, have been used as experimental animals. After an 18 hour fast period with water "ad libitum" the derivatives which are the subjects of the present invention are administered intraperitoneally in 5% suspension in gum arabic. The volume of suspension administered has in all cases been 0.4 ml/20 grams (20 ml/kg), changing the concentration of the suspension according to the dose administered.
One hour after the administration of the derivatives, the animals are supplied with Panlab standard rat-mouse feed. The period of observation of mortality has been 7 days.

CCn1cc(C(=O)O)c(=O)c2ccc(C)nc21 [Nalidixic acid, reference compound]
LD50 at 168 h: 600 mg/kg
